Reference: PubChem BioAssay (NCI)
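48-hour exposure; five concentrations; linearly interpolated endpoints. TGI denotes the concentration required for complete inhibition of growth.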

Assays:
Test in all cases: DTP human tumour cell line panel, 48 h
HS 578T breast = tested on: HS 578T breast
PC-3 prostate = tested on: PC-3 prostate
MDA-N = tested on: MDA-N
MDA-MB-231 breast = tested on: MDA-MB-231 breast
ACHN renal = tested on: ACHN renal
MDA-MB-435 = tested on: MDA-MB-435
DU-145 prostate = tested on: DU-145 prostate
BT-549 breast = tested on: BT-549 breast
M14 melanoma = tested on: M14 melanoma
LXFL 529 NSCLC = tested on: LXFL 529 NSCLC

| Structure (SMILES) | TGI (HS 578T breast) [µM] | TGI (PC-3 prostate) [µM] | TGI (MDA-N) [µM] | TGI (MDA-MB-231 breast) [µM] | TGI (ACHN renal) [µM] | TGI (MDA-MB-435) [µM] | TGI (DU-145 prostate) [µM] | TGI (BT-549 breast) [µM] | TGI (M14 melanoma) [µM] | TGI (LXFL 529 NSCLC) [µM] |
| --- | --- | --- | --- | --- | --- | --- | --- | --- | --- | --- |
| O=C1CC(/C=C/c2ccco2)=C(O)C1=O | 87.9 | 25.4 | 29.7 | 35.2 | 34.3 | 35.3 | 32.5 | 23.6 | 29.2 | – |
| COC1/C=C/C=C(/C)Cc2cc(O)c(Cl)c(c2)N(C)C(=O)CC(OC(=O)C(C)C)C2(C)OC2C(C)C2CC1(O)NC(=O)O2 (centres undefined) | > 100 | > 100 | < 0.01 | > 42.3 | > 100 | > 100 | – | 49.4 | – | – |
| O=c1ccc2ccc(CBr)cc2o1 | 28.9 | > 100 | 15.1 | 4.14 | – | 10.4 | 30.8 | 8.99 | 8.92 | – |
| C/C(=N\Nc1nc2cc(Cl)ccc2s1)c1ccccn1 | > 100 | > 35.2 | > 100 | 7.41 | 13.4 | > 42 | > 23.3 | > 61.3 | – | – |
| CC1(C)OC[C@H](C(=N)OCc2ccccc2)O1 | – | – | – | – | > 100 | – | – | – | > 100 | > 100 |
| CCN1c2ccccc2NC(=S)c2c1n[nH]c2-c1ccccc1 | > 100 | 84.6 | 32.6 | 61.8 | > 100 | 52.5 | > 100 | > 100 | > 100 | – |
